For assay [1], the target named is T1, human TDO (TDO-expressing HEK293 cells) (Homo sapiens, UniProt P48775).
T1 construct: expressed in transfected cells
Nature of the assay: Cell based kynurenine assay, TDO-expressing HEK293 cell clones. The essentials: (§1)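 Steps: seed IDO1- or TDO-expressing HEK293 cells at 2.5×10^4 per well; add compound dilutions; incubate 24 h; transfer supernatant and determine kynurenine; derive IC50 via nonlinear regression of percent inhibition.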

The target in assay [2] is T2, Human Tryptophan 2,3-dioxygenase (TDO) (Homo sapiens, UniProt P48775).
T2 construct: His tag (N); made in house; host or cells: E. coli
Briefly: Human TDO enzymatic assay (kynurenine level). In kind it is biochemical. Put shortly: (§2)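 Kynurenine formed is measured after TCA quench and 50 °C hydrolysis, with % inhibition against full-reaction and no-enzyme controls (5% DMSO). IDO: 6 nM enzyme, 10 μM L-Trp, 5 μM methylene blue, 20 min; TDO: 1 nM, 350 μM L-Trp, 0.4 μM methylene blue, 70 min; both pH 6.5, room temp, E. coli-expressed His-tagged.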

Assay [3] concerns the target T3, Human Indoleamine 2,3-dioxygenase (IDO) (Homo sapiens, UniProt P14902).
T3 construct: His tag (N); made in house; host or cells: E. coli
Nature of the assay: Human IDO enzymatic assay (kynurenine level). In kind it is biochemical. The essentials:
as §2

The target in assay [4] is T4, human IDO (IDO1-expressing HEK293 cells) (Homo sapiens, UniProt P14902).
T4 construct: expressed in transfected cells
Briefly: Cell based kynurenine assay, IDO1-expressing HEK293 cell clones. The essentials: as §1

The mark [5] stands for this setting: TDO-expressing HEK293 cells, 24 hours, geometric mean, read-out: HEK293 TDO Kynurenine GMean IC50 (μM) (Cellular Assay).
The mark [6] stands for this setting: 1 nM TDO, 350 μM L-Trp, geometric mean, read-out: TDO GMean: IC50 (μM) (Biochemical Assay).
Setting [7] is: 6 nM IDO, 10 μM L-Trp, geometric mean, read-out: IDO1 GMean: IC50 (μM) (Biochemical Assay).
The mark [8] stands for this setting: IDO1-expressing HEK293 cells, 24 hours, geometric mean, read-out: HEK293 IDO1 Kynurenine GMean IC50 (μM) (Cellular Assay).
The mark [9] stands for this setting: cellular assay, HEK293, 24 hours, comparative examples, read-out: hTDO.
Setting [10] is: biochemical assay, comparative examples, 4,6 versus 5,7 indazole, read-out: TDO.
[11] abbreviates: biochemical assay, comparative examples, 4,6 versus 5,7 indazole, read-out: IDO1.
The mark [12] stands for this setting: cellular assay, HEK293, 24 hours, comparative examples, read-out: hIDO1.

Read-outs that look alike come from different tables or passages of the source.

T1 sequence (P48775 whole entry): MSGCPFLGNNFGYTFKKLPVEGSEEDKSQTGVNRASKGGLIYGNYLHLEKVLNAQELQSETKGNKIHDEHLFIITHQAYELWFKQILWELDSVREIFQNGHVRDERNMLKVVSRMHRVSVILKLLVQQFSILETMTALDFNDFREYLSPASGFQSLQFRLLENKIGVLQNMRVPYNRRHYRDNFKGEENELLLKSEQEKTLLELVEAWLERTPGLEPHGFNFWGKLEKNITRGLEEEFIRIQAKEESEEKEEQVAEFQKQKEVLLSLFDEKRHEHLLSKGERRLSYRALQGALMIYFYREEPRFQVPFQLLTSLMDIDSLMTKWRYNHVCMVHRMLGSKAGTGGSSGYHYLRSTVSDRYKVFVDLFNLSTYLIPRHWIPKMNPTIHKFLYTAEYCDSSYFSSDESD
T2 sequence (P48775 whole entry): as above
T4 sequence (P14902 whole entry): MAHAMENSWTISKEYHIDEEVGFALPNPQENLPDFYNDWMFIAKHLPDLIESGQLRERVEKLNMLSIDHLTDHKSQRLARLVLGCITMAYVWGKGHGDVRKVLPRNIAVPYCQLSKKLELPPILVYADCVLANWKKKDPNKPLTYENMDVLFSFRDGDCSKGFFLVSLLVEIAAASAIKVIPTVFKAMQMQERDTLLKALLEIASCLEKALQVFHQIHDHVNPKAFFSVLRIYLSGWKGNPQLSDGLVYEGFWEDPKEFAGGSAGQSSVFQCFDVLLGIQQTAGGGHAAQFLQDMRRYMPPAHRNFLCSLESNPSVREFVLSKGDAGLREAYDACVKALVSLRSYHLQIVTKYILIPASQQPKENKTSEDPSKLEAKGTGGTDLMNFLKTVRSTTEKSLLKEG
T3 sequence (P14902 whole entry): as above

As to `CC(C)(C1CCN(C(=O)NCC(F)(F)F)CC1)[C@H](O)c1cc(Cl)cc2cn[nH]c12` [Compound P-0562, (S)-4-(1-(5-chloro-1H-indazol-7-yl)-1-hydroxy-2-methylpropan-2-yl)-N-(2,2,2-trifluoroethyl) piperidine-1-carboxamide], the IC50 in assay [1] (setting [5]), in assay [2] (setting [6]), in assay [3] (setting [7]) and in assay [4] (setting [8]) was 0.0001 to 10 µM each time.

With `CC(C)(C1CCN(C(=O)Nc2ccccc2)CC1)[C@H](O)c1cc(Cl)cc2cn[nH]c12` [Compound P-0563, (S)-4-(1-(5-chloro-1H-indazol-7-yl)-1-hydroxy-2-methylpropan-2-yl)-N-phenylpiperidine-1-carboxamide], the IC50 in assay [1] (setting [5]), in assay [2] (setting [6]), in assay [3] (setting [7]) and in assay [4] (setting [8]) was 0.0001 to 10 µM in each case.

Take `CC(C)CNC(=O)N1CCC(C(C)(C)[C@H](O)c2cc(Cl)cc3cn[nH]c23)CC1` [Compound P-0564, (S)-4-(1-(5-chloro-1H-indazol-7-yl)-1-hydroxy-2-methylpropan-2-yl)-N-isobutylpiperidine-1-carboxamide]: the IC50 in assay [1] (setting [5]), in assay [2] (setting [6]), in assay [3] (setting [7]) and in assay [4] (setting [8]) was 0.0001 to 10 µM throughout.

As to `CC(C)(C1CCN(C(=O)NC[C@H]2CCCO2)CC1)[C@H](O)c1cc(Cl)cc2cn[nH]c12` [Compound P-0565, 4-((S)-1-(5-chloro-1H-indazol-7-yl)-1-hydroxy-2-methylpropan-2-yl)-N-(((R)-tetrahydrofuran-2-yl)methyl)piperidine-1-carboxamide], the IC50 in assay [1] (setting [5]), in assay [2] (setting [6]), in assay [3] (setting [7]) and in assay [4] (setting [8]) was 0.0001 to 10 µM throughout.

Turning to `CC(C)(C1CCN(C(=O)NC[C@@H]2CCCO2)CC1)[C@H](O)c1cc(Cl)cc2cn[nH]c12` [Compound P-0566, 4-((S)-1-(5-chloro-1H-indazol-7-yl)-1-hydroxy-2-methylpropan-2-yl)-N-(((S)-tetrahydrofuran-2-yl)methyl)piperidine-1-carboxamide], the IC50 in assay [1] (setting [5]), in assay [2] (setting [6]), in assay [3] (setting [7]) and in assay [4] (setting [8]) was 0.0001 to 10 µM in each case.

Turning to `CCCNC(=O)N1CCC(C(C)(C)[C@H](O)c2cc(Cl)cc3cn[nH]c23)CC1` [Compound P-0567, (S)-4-(1-(5-chloro-1H-indazol-7-yl)-1-hydroxy-2-methylpropan-2-yl)-N-propylpiperidine-1-carboxamide], the IC50 in assay [1] (setting [5]), in assay [2] (setting [6]), in assay [3] (setting [7]) and in assay [4] (setting [8]) was 0.0001 to 10 µM each time.

As for `C#CCNC(=O)N1CCC(C(C)(C)[C@H](O)c2cc(Cl)cc3cn[nH]c23)CC1` [Compound P-0568, (S)-4-(1-(5-chloro-1H-indazol-7-yl)-1-hydroxy-2-methylpropan-2-yl)-N-(prop-2-yn-1-yl)piperidine-1-carboxamide], the IC50 in assay [1] (setting [5]), in assay [2] (setting [6]), in assay [3] (setting [7]) and in assay [4] (setting [8]) was 0.0001 to 10 µM in each case.

Take `CC(C)(C1CCN(C(=O)Nc2cccc(C#N)c2)CC1)[C@H](O)c1cc(Cl)cc2cn[nH]c12` [Compound P-0569, (S)-4-(1-(5-chloro-1H-indazol-7-yl)-1-hydroxy-2-methylpropan-2-yl)-N-(3-cyanophenyl) piperidine-1-carboxamide]: the IC50 in assay [1] (setting [5]), in assay [2] (setting [6]), in assay [3] (setting [7]) and in assay [4] (setting [8]) was 0.0001 to 10 µM in each case.

As to `CC(C)(C1CCN(C(=O)Nc2ccc(C#N)nc2)CC1)C(O)c1cc(Cl)cc2cn[nH]c12` (stereo not drawn) [Compound P-0570, 4-(1-(5-chloro-1H-indazol-7-yl)-1-hydroxy-2-methylpropan-2-yl)-N-(6-cyanopyridin-3-yl)piperidine-1-carboxamide], the IC50 in assay [1] (setting [5]), in assay [2] (setting [6]), in assay [3] (setting [7]) and in assay [4] (setting [8]) was 0.0001 to 10 µM in each case.

For `OC(c1cc(Cl)cc2cn[nH]c12)C1CCCCC1` (stereo not drawn) [drawing 810], the IC50 amounted to 1.2 µM in assay [1] (setting [9]), 0.17 µM in assay [2] (setting [10]), 0.05 µM in assay [3] (setting [11]) and 0.23 µM in assay [4] (setting [12]).

Consider `COC12CCC(C(O)c3cc(Cl)cc4cn[nH]c34)(CC1)CC2` (stereo not drawn) [drawing 812], for which the IC50 in assay [1] (setting [9]) is 2.63 µM; in assay [2] (setting [10]) it was 1.18 µM; in assay [3] (setting [11]), 0.11 µM; in assay [4] (setting [12]), 0.08 µM.

For `CC(C)(C1CCN(S(C)(=O)=O)CC1)C(O)c1cc(Cl)cc2cn[nH]c12` (stereo not drawn) [drawing 814], the IC50 in assay [1] (setting [9]) worked out at 0.42 µM; in assay [2] (setting [10]) it was 0.15 µM; in assay [3] (setting [11]) it was 0.03 µM; in assay [4] (setting [12]) it was 0.08 µM.

Regarding `CC(C)(C1CCOCC1)C(O)c1cc(Cl)cc2cn[nH]c12` (stereo not drawn) [drawing 816], the IC50 in assay [1] (setting [9]) stood at 2.63 µM; in assay [2] (setting [10]), 1.18 µM; in assay [3] (setting [11]), 0.11 µM; in assay [4] (setting [12]), 0.08 µM.

`CC(C)(C1CCOCC1)C(O)c1cc(Cl)cc2[nH]ncc12` (stereo not drawn) [drawing 817]: the IC50 in assay [1] (setting [9]) was 0.01 µM; in assay [2] (setting [10]), 0.08 µM; in assay [3] (setting [11]), 0.95 µM; in assay [4] (setting [12]) it was 6.94 µM.

Regarding `OC1(c2cc(Cl)cc3cn[nH]c23)CC2(CCOCC2)C1` [drawing 820], the IC50 in assay [1] (setting [9]) was 2.41 µM; in assay [2] (setting [10]), 0.22 µM; in assay [3] (setting [11]) it was 0.16 µM; in assay [4] (setting [12]), 0.4 µM.

The values are drawn from patent US10508085B2, “Compounds and methods for IDO and TDO modulation, and indications therefor” (Plexxikon Inc., priority 2016, dated 2019).
